Results: paper PMC5218472 (PLoS Biology, 2017)
Residues, ends and D or L forms follow the SMILES beside them. No end group written: not given here. *: point of attachment. NH(β-GlcNAc) = CC(=O)N[C@@H]1[C@@H](O)[C@H](O)[C@@H](CO)O[C@H]1N*; αGalNAc = CC(=O)N[C@@H]1[C@@H](O)[C@@H](O)[C@@H](CO)O[C@@H]1*

Tested on: T1, ADAM17
T1 construct: catalytic domain (aa Pro-18 to Val-477) of ADAM17; purchased Enzo Life Sciences GmbH (Lörrach, Germany)
Test: In vitro cleavage assay of IL-6R (glyco)peptides with recombinant ADAM17
Settings: human, isolated enzyme, pH 9
Protocol: Fig 7 The N- and O-glycosylated sequon adjacent to the cleavage site is of minor importance for IL-6R cleavage. (A) Amino-acid sequence of the two unglycosylated peptides 1(QD) and 2(QA). Peptides were incubated either with or without recombinant ADAM17 for 16 h at 37°C, and the amount of cleaved peptide was analyzed by reversed-phase (RP) chromatography. (B) Amino-acid sequence of the two glycopeptides 3(QD) and 4(QA), which have a GlcNAc attached to the amino-acid residue corresponding to Asn-350 of the IL-6R. Cleavage was determined as described in panel (A). (C) Amino-acid sequence of the two glycopeptides 5(QD) and 6(QA), which have a biantennary N-glycan attached to the amino-acid residue corresponding to Asn-350 of the IL-6R. Cleavage was determined as described in panel (A). (D) Amino-acid sequence of the two glycopeptides 7(QD) and 8(QA), which have a GalNAc attached to the amino-acid residue corresponding toThr-352 of the IL-6R. Cleavage was determined as described in panel (A). (E) Amino-acid sequence of the two glycopeptides 9(QD) and 10(QA), which have a biantennary N-glycan attached to the amino-acid residue corresponding to Asn-350 and a GalNAc attached to the amino-acid residue corresponding toThr-352 of the IL-6R. Cleavage was determined as described in panel (A). All data shown are the mean ± SD from three independent experiments (*p < 0.05, **p < 0.01, ***p < 0.001, compared to the untreated peptide; ^§p < 0.05, compared to the cleaved nonglycosylated peptide).
Two 1.5 ml reaction tubes were filled with 50 μl peptide (50 μM) solved in 25 mM Hepes (pH 9.0), and 0.5 μl of the recombinant catalytic domain of ADAM17 was added to one of the reaction tubes, whereas the other sample remained untreated. All samples were incubated for 16 h at 37°C. Afterwards, 1,150 μl 0.1% TFA was added to each sample, and the peptides were separated on a reverse phase chromatography column (Multo High Bio-200-C18) from Chromatographie Service (Langerwehe, Germany) using a linear gradient elution with a binary solvent system and a flow rate of 1 ml/min. Solvent A consisted of 0.1% TFA, and solvent B consisted of 100% ACN. After peak integration, peak areas for cleaved and noncleaved peptides were determined.

| Compound | remaining at 16 h, 50 μM |
| --- | --- |
| CC[C@H](C)[C@H](NC(=O)[C@@H](N)CC(N)=O)C(=O)N[C@@H](CC(C)C)C(=O)N[C@@H](Cc1ccccc1)C(=O)N[C@@H](CCCNC(=N)N)C(=O)N[C@@H](CC(=O)O)C(=O)N[C@@H](CO)C(=O)N[C@@H](C)C(=O)N[C@@H](CC(=O)N[C@@H]1O[C@H](CO)[C@@H](O)[C@H](O)[C@H]1NC(C)=O)C(=O)N[C@@H](C)C(=O)N[C@H](C(=O)N[C@@H](CO)C(=O)N[C@@H](CC(C)C)C(=O)N1CCC[C@H]1C(=O)N[C@H](C(=O)N[C@@H](CCC(N)=O)C(=O)N[C@@H](CC(=O)O)C(=O)N[C@@H](CO)C(=O)N[C@@H](CO)C(=O)N[C@@H](CO)C(=O)N[C@H](C(=O)N1CCC[C@H]1C(=O)N[C@@H](CC(C)C)C(=O)N1CCC[C@H]1C(=O)O)C(C)C)C(C)C)[C@@H](C)O [3(QD)] (H-NILFRDSAD(NH(β-GlcNAc))ATSLPVQDSSSVPLP-OH) | 91.4% |
| CC[C@H](C)[C@H](NC(=O)[C@@H](N)CC(N)=O)C(=O)N[C@@H](CC(C)C)C(=O)N[C@@H](Cc1ccccc1)C(=O)N[C@@H](CCCNC(=N)N)C(=O)N[C@@H](CC(=O)O)C(=O)N[C@@H](CO)C(=O)N[C@@H](C)C(=O)N[C@@H](CC(=O)N[C@@H]1O[C@H](CO)[C@@H](O)[C@H](O)[C@H]1NC(C)=O)C(=O)N[C@@H](C)C(=O)N[C@H](C(=O)N[C@@H](CO)C(=O)N[C@@H](CC(C)C)C(=O)N1CCC[C@H]1C(=O)N[C@H](C(=O)N[C@@H](CCC(N)=O)C(=O)N[C@@H](C)C(=O)N[C@@H](CO)C(=O)N[C@@H](CO)C(=O)N[C@@H](CO)C(=O)N[C@H](C(=O)N1CCC[C@H]1C(=O)N[C@@H](CC(C)C)C(=O)N1CCC[C@H]1C(=O)O)C(C)C)C(C)C)[C@@H](C)O [4(QA)] (H-NILFRDSAD(NH(β-GlcNAc))ATSLPVQASSSVPLP-OH) | 0.4% |
| CC[C@H](C)[C@H](NC(=O)[C@@H](N)CC(N)=O)C(=O)N[C@@H](CC(C)C)C(=O)N[C@@H](Cc1ccccc1)C(=O)N[C@@H](CCCNC(=N)N)C(=O)N[C@@H](CC(=O)O)C(=O)N[C@@H](CO)C(=O)N[C@@H](C)C(=O)N[C@@H](CC(N)=O)C(=O)N[C@@H](C)C(=O)N[C@H](C(=O)N[C@@H](CO)C(=O)N[C@@H](CC(C)C)C(=O)N1CCC[C@H]1C(=O)N[C@H](C(=O)N[C@@H](CCC(N)=O)C(=O)N[C@@H](CC(=O)O)C(=O)N[C@@H](CO)C(=O)N[C@@H](CO)C(=O)N[C@@H](CO)C(=O)N[C@H](C(=O)N1CCC[C@H]1C(=O)N[C@@H](CC(C)C)C(=O)N1CCC[C@H]1C(=O)O)C(C)C)C(C)C)[C@@H](C)O[C@H]1O[C@H](CO)[C@H](O)[C@H](O)[C@H]1NC(C)=O [7(QD)] (H-NILFRDSANAT(αGalNAc)SLPVQDSSSVPLP-OH) | 91% |
| CC[C@H](C)[C@H](NC(=O)[C@@H](N)CC(N)=O)C(=O)N[C@@H](CC(C)C)C(=O)N[C@@H](Cc1ccccc1)C(=O)N[C@@H](CCCNC(=N)N)C(=O)N[C@@H](CC(=O)O)C(=O)N[C@@H](CO)C(=O)N[C@@H](C)C(=O)N[C@@H](CC(N)=O)C(=O)N[C@@H](C)C(=O)N[C@H](C(=O)N[C@@H](CO)C(=O)N[C@@H](CC(C)C)C(=O)N1CCC[C@H]1C(=O)N[C@H](C(=O)N[C@@H](CCC(N)=O)C(=O)N[C@@H](C)C(=O)N[C@@H](CO)C(=O)N[C@@H](CO)C(=O)N[C@@H](CO)C(=O)N[C@H](C(=O)N1CCC[C@H]1C(=O)N[C@@H](CC(C)C)C(=O)N1CCC[C@H]1C(=O)O)C(C)C)C(C)C)[C@@H](C)O[C@H]1O[C@H](CO)[C@H](O)[C@H](O)[C@H]1NC(C)=O [8(QA)] (H-NILFRDSANAT(αGalNAc)SLPVQASSSVPLP-OH) | 10.8% |
| NILFRDSANATSLPVQASSSVPLP [2(QA)] | 0.93% |
| NILFRDSANATSLPVQDSSSVPLP [1(QD)] | 86% |
